Patent publication US5300501A, “Peptidyl derivatives” (Celltech Limited, priority 1990, dated 1994)

Tests used:
Assay type in all cases: biochemical
Stromelysin-1 = Stromelysin-1 (Homo sapiens, UniProt P08254); experiment: Enzyme inhibition assay (peptide substrate Dnp-Pro-Leu-Gly-Leu-Trp-Ala-D-Arg-NH2, Trp fluorescence), stromelysin; conditions: pH 7.5, overnight, Ki (app) assumed to approximate true Ki
From the text: (§1) The enzymes cleave at the Gly-Leu bond which can be followed fluorimetrically by measuring the increase in Trp fluorescence emission associated with the removal of the quenching dinitrophenol (Dnp) group.
(§2) Ki values can be established using the equation for tight-being inhibition: [formula] where Vo is the initial rate of reaction in the absence of inhibitor, Vi is the initial rate in the presence of inhibitor, [E] is the total enzyme concentration and [I] the total inhibitor concentration in the reaction mixture.
(§3) For stromelysin and collagenase, Ki (app) was assumed to approximate to the true Ki as [S]<<Km for the substrate hydrolysis. For gelatinase the Ki was determined by performing the analyses at several substrate concentrations. A plot of Ki (app) vs. [S] then gave the true Ki as the value of the y-axis intercept.

Gelatinase-72KD = target: T1, Gelatinase-72KD (Homo sapiens, UniProt P08253); experiment: Enzyme inhibition assay (peptide substrate Dnp-Pro-Leu-Gly-Leu-Trp-Ala-D-Arg-NH2, Trp fluorescence), gelatinase; conditions: pH 7.5, overnight; true Ki from plot of Ki (app) vs. [S], y-axis intercept
T1 sequence (P08253 110-660): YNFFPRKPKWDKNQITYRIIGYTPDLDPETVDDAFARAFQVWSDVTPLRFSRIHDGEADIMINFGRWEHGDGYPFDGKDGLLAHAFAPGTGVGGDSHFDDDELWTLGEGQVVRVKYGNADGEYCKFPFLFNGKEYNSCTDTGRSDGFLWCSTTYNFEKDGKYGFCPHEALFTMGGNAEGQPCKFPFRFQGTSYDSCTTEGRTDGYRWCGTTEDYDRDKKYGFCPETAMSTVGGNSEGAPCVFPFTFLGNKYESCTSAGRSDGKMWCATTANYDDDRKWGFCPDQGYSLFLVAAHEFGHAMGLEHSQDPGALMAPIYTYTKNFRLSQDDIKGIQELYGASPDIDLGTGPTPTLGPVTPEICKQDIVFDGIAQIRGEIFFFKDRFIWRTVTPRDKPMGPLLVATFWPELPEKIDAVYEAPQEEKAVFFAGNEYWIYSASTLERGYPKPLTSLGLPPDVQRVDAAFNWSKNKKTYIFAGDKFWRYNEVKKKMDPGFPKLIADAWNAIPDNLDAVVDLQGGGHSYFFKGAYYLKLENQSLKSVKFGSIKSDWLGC
From the text: as §1, §2, §3

Collagenase = target: T2, Collagenase (Homo sapiens, UniProt P03956); experiment: Enzyme inhibition assay (peptide substrate Dnp-Pro-Leu-Gly-Leu-Trp-Ala-D-Arg-NH2, Trp fluorescence), collagenase; conditions: pH 7.5, overnight, Ki (app) assumed to approximate true Ki
T2 sequence (P03956 100-469): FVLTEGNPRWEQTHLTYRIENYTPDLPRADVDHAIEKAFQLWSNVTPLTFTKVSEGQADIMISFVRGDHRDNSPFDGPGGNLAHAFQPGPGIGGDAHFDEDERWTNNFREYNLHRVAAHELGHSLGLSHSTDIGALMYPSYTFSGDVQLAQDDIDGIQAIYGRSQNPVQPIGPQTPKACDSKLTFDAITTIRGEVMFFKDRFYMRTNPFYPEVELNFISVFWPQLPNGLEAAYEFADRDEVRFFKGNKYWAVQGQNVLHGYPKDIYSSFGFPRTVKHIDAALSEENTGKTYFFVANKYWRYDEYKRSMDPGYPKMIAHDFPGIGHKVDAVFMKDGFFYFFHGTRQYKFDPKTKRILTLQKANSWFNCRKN
From the text: as §1, §2, §3

[1] = value printed in μM in the cell

Sequence of Stromelysin-1 (P08254 100-477, species assumed): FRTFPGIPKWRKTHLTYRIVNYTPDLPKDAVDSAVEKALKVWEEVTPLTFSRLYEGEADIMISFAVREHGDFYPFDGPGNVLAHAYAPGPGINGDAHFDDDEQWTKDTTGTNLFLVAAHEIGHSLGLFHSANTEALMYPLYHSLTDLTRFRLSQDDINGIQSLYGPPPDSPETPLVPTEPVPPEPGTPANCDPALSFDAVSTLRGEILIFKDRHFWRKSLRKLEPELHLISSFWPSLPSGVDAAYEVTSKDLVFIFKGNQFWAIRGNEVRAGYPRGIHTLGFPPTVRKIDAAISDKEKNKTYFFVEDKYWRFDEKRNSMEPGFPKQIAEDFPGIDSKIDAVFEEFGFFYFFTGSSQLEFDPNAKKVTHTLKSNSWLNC

Compound	Ki (Stromelysin-1)	Ki (Gelatinase-72KD)	Ki (Collagenase)	Ki (Stromelysin-1; [1])	Ki (Collagenase; [1])
NS(=O)(=O)c1ccc(CCNC(=O)[C@H](CC2CCCCC2)NC(=O)[C@H](CCCc2ccccc2)CC(=O)NO)cc1 [Example 6, [4-(N-Hydroxyamino)-2R-phenylpropylsuccinyl]-L-β-cyclohexyalanine-N-(2-(p-sulphonamidophenyl)ethyl) amide]	0.00592 µM	0.025 nM	0.15 µM	–	–
O=C(C[C@@H](CCCc1ccccc1)C(=O)N[C@@H](CC1CCCCC1)C(=O)NCCCN1CCOCC1)NO [Example 12, [4-(N-Hydroxyamino)-2R-phenylpropylsuccinyl]-L-β-cyclohexylalanine-N-[3(4-morpholinyl)propyl] amide]	0.0248 µM	0.14 nM	0.21 µM	–	–
O=C(O)C[C@@H](CCCc1ccccc1)C(=O)N[C@@H](CC1CCCCC1)C(=O)NCCc1ccccc1 [Example 15, [4-Hydroxy-2(R)-(3-phenylpropyl)succinnyl]-L-β-cyclohexylalanine-(N-2-phenylethyl) amide]	0.842 µM	–	–	–	–
COC(=O)CCNC(=O)[C@H](CC1CCCCC1)NC(=O)[C@H](CCCc1ccccc1)CC(=O)O [Example 16, [4-Hydroxy-2(R)-(3-phenylpropyl)succinyl]-L-β-cyclohexylalanine-β-alanine methyl ester]	–	6 nM	–	1.47 µM	57 µM
